Test system: blood collected from a volunteer
Experiment: Measurement of whole blood clotting time (Sonoclot, ACT ONSET)
Parameters: species or system human
Procedure: The blood collected from a volunteer and citric acid were mixed at a volume ratio of 9/1 to prepare blood supplemented with citric acid.
In a cuvette (NON-ACTIVATED CLOTTING TEST KIT), 18 μL of physiological saline solution was placed, and 14.8 μL of calcicol was added thereto, followed by further adding 342 μL of blood supplemented with citric acid. Thereafter, the measurement using Sonoclot Blood Coagulation/Platelet Function Analyzer (IMI) was carried out to define the obtained ACT ONSET value as whole blood clotting time. The whole blood clotting time of the blood collected by volunteer was 545 seconds.

Structure (SMILES): CC1CNc2c(cccc2S(=O)(=O)N[C@@H](CCCNC(=N)N)C(=O)N2CC[C@@H](C)C[C@@H]2C(=O)O)C1 (mixture of isomers) [argatroban, (2R,4R)-4-methyl-1-((2S)-2-{[(3RS)-3-methyl-1,2,3,4-tetrahydroquinolin-8-yl]sulfonyl}amino-5-guanidinopentanoyl)piperidin-2-carboxylic acid]
- Whole blood clotting time (2 μM argatroban solution in place of physiological saline solution): 531 s
- Whole blood clotting time (10 μM argatroban solution in place of physiological saline solution): 746 s
- Whole blood clotting time (20 μM argatroban solution in place of physiological saline solution): 849 s
